This note sets out measurements from patent US20240050429A1, “PAZOPANIB PHARMACEUTICAL COMPOSITION, INJECTION AND PREPARATION METHOD AND USE THEREOF” (Qx Therapeutics, Inc., priority 2022, published 2024).

Counter-ions that a name gives are not always drawn.

In the assay the test system is hydrochloric acid-induced acute lung injury in mice. As to the kind of experiment: Hydrochloric acid-induced acute lung injury, lung permeability, tail intravenous injection of Example 2. The format is in vivo. On the set-up: dose or concentration left out as unconfirmed. How it is done:
1. In this example, […], respectively, which corresponded to the freshly prepared pharmaceutical compositions in Example 2 (being freshly formulated referred to within 1 day after the formulation was completed), and the therapeutic effect of these doses on hydrochloric acid-induced acute lung injury in mice were determined, wherein the body weight of each mouse was 20 g.
8 to 10 weeks old C57/BL male and female mice were infused with 0.05 M HCl at 2.5 μl/bwg through the trachea. 4 hours later, 100 μl of FITC-labeled albumin (10 mg/ml) was injected through the posterior segment of eyeball. Finally, the mice were euthanized and lung tissue samples were collected 6 hours after the induction of injury to measure changes in pulmonary permeability and lung histopathology. […] Meanwhile, plasma was collected and bronchoalveolar lavage was performed after mice were euthanized.

As to `Cc1ccc(Nc2nccc(N(C)c3ccc4c(C)n(C)nc4c3)n2)cc1S(N)(=O)=O` [Comparative Example 1, pazopanib hydrochloride], the “Percentage (%) of reduced lung permeability” value was 45 to 70%.
